From patent US10000469B2, “Heat shock protein 70 (hsp-70) receptor ligands” (Duke University, priority 2014, dated 2018)

Columns and labels:
Hsp70 = Hsp70 (Homo sapiens, UniProt P0DMV8); experiment: Single turnover ATPase assay; format: biochemical; settings: presence or absence of co-chaperone Hlj1
Description: ATPase Assay: Single turnover assays were performed as previously described [Fewell et al. (2004). Small molecule modulators of endogenous and co-chaperone-stimulated Hsp70 ATPase activity. The Journal of biological chemistry 279, 51131-51140]. Briefly, Hsp70 was incubated with ^32P-ATP and cold ATP in single turnover buffer (1M KCl, 250 mM HEPES, 110 mM MgOAc) for 30 minutes on ice. ^32P-ATP-Hsp70 complex was purified from a Nick Column-Sephadex G-50 (Amersham, Piscataway, N.J.). Glycerol was added and the complexes were stored at −80° C. To determine ATP hydrolysis, a sample was thawed and added to single turnover buffer containing Hlj1 and compound added after 60 seconds. At the specified time points an aliquot of the reaction is removed, added to stop solution (2M LiCl, 4M formic acid, 36 mM ATP) and spotted on a TLC plate. The percentage of ATP hydrolyzed to ADP and P, was then calculated.

caspase-3/7 = experiment: Caspase 3/7 assay in cancer cells; format: cell-based
Description: Caspase 3/7 Assay: The Amplite™ Fluorimetric Caspase3/7 assay kit (AAT Bioquest, Sunnyvale, Calif.) was used per the manufacturer's instructions. Briefly, a fluorometric indicator, Ac-DEVD-AMC, was used to determine caspase activity. […] Cells were seeded at 60,000 cells/well in a 96 well plate and treated with compound for the indicated period of time. Diluted caspase 3/7 assay solution was added to each well and incubated at room temperature for 2 hours protected from light, upon which time fluorescence was measured on the Victor X2 plate reader (Perkin Elmer, Waltham, Mass.).

NF639 = experiment: Cell proliferation, NF639; format: cell-based, mouse
Description: Cell Proliferation: Cell proliferation was determined using a Hoechst stain (Sigma, St. Louis, Mo.) to quantify DNA. 5,000 cells of the designated cell line were plated in 96 well plates and treated the next day, designated as time point 0, with the indicated concentration of the specified compound maintained for the duration of the assay. At the indicated time points the media was removed and plated frozen at −80° C. Double distilled H2O was then added and the plates were incubated at 37° C. for 1 hour. After 1 hour the plates were frozen at −80° C. After freezing the plates were thawed and Hoechst stain was diluted 1:1000 in THE buffer (10 mM Tris, 2M NaCl, 1 mM Na2EDTA). The final fluorescence was measured on the Victor X2 plate reader at 355/460 nm, and cell proliferation was determined with the formula: % Cell Proliferation=100×(Sample fluorescence−background fluorescence)/(Control fluorescence−background fluorescence).

Hsp70i = Hsp70i (Homo sapiens, UniProt P0DMV8); experiment: HS-72 affinity resin pull-down from HEK293T lysate, Hsp70i; format: binding; parameters: endogenous in cells; host or cells: HEK 293T; settings: free HS-72 incubated with lysate
Sequence of Hsp70i (P0DMV8 whole entry): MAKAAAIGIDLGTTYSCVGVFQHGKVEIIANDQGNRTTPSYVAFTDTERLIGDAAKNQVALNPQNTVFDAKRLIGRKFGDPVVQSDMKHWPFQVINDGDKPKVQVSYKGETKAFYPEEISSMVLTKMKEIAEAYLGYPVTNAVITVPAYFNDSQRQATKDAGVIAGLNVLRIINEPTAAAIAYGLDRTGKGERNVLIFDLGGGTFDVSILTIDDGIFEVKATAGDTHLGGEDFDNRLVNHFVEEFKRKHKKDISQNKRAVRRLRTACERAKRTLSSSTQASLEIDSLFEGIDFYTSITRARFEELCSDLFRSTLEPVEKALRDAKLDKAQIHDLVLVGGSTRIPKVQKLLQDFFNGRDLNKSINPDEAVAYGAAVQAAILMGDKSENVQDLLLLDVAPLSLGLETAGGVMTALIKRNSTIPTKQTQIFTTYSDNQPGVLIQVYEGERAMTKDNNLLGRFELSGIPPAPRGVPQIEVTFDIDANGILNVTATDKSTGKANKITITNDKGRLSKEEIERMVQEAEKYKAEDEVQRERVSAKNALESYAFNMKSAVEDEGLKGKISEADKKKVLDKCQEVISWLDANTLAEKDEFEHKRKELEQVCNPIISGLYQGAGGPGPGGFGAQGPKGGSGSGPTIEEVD
Description: HS-72 specifically targets Hsp70i over other members of the Hsp70 superfamily. To test the selectivity of the HS-72 scaffold against the broader purinome, HEK 293T cell extracts or pig bladder tissue lysates were applied to the ATP resin and eluted with HS-72, as described for FLECS. The eluates were characterized by SDS-PAGE, silver stain, and MS analysis. […] To more thoroughly determine the specificity of HS-72 for Hsp70i, the HEK 293T eluates were also analyzed for other Hsp70 family members Hsc70, Grp78, and Grp75, as well as Hsp90 by Western blot. […] Next, an affinity resin was synthesized using the HS-72 scaffold, similar to a previously described affinity resin targeting Hsp90 [Hughes et al. (2012). […] Bioorganic & medicinal chemistry 20, 3298-3305]. HEK 293T cell lysate was applied to the resin and subjected to several washes. To confirm selectivity of the HS-72 affinity resin for Hsp70i, free HS-72 was incubated with lysate to inhibit Hsp70i binding to the affinity resin. The linker on the resin was cleaved using sodium dithionite and the samples were subjected to SDS-PAGE and analyzed by Western blot, silver stain, and mass spectrometry. […] These studies identified HS-72 as the first example of a small molecule that can selectively discriminate Hsp70i from other members of the Hsp70 superfamily.

Sequence of Hsp70 (P0DMV8 whole entry): as above

CCCn1c(NC(=O)[C@H]2CCCN(c3cnccn3)C2)nc2ccccc21 [HS-72, (S)—N-(1-propyl-1H-benzo[d]imidazol-2-yl)-1-(pyrazin-2-yl)piperidine-3-carboxamide]
effect on Hsp70 ATPase activity (Hsp70): does not reduce | caspase activation (caspase-3/7; 6 hours and 24 hours, dose dependent): reproducible across several cancer cell lines | caspase activation (caspase-3/7; various cancer cells): inducing caspase activation in a dose dependent manner | cell proliferation, combination with HS-10 (NF639): synergistic inhibition | cell proliferation (NF639; 25 uM and 50 uM at 24, 48, and 72 hours): inhibits proliferation | competition of Hsp70i binding to the affinity resin by free compound (Hsp70i): able to block this interaction
